Patent US20260158031A1, “AROMATIC HETEROCYCLIC COMPOUND, PHARMACEUTICAL COMPOSITION CONTAINING THE SAME, AND USE THEREOF” (HANG ZHOU YUHONG PHARMATECH CO., LTD., priority 2021, published 2026)

Key:
[1] = tested on: collagen-induced mouse arthritis model; test: Collagen-induced mouse arthritis model (mCIA); type: in vivo, DBA/1J mice; settings: female DBA/1J CIA mice, 50 mg/kg once a day, FIG. 2
Source text: Objective of Experiment: to test the immunosuppressive activity of YZ001052 in a mCIA model. PF-06651600 was used as a positive control compound.
Complete and incomplete Freund's adjuvants were mixed with a chicken type II collagen solution in equal proportions to form an emulsifier. Except for the blank control group, on Day 0, a mixture of a complete Freund's adjuvant and the chicken type II collagen solution was subcutaneously injected into the tail roots and thigh roots of the mice, with 100 μL being injected subcutaneously at the tail root of each mouse; and 50 μL being injected subcutaneously at each of the two thigh roots of each mouse (primary immunization). On day 21, the mice were subcutaneously injected with 200 μL of a mixture of an incomplete Freund's adjuvant and the chicken type II collagen solution as a booster injection (second immunization). […] Measurement of paw thickness: the thicknesses of the left and right hind feet of the mice were measured with a vernier caliper to serve as the paw swelling degree and recorded, and the detection frequency was once every 3 days.

[2] = tested on: SRBC mouse model; test: SRBC-induced delayed type hypersensitivity (DTH) in mice; type: in vivo; settings: male Balb/c mice, 100 mg/kg by gavage once a day, day 0 to day 6, FIG. 1
Description: PF-06651600 was used as a positive control compound.
Drug preparation: the compound was weighed and added with a 0.5% CMC-Na solution to prepare a drug suspension (with an administration dose of 10 mg/mL).
Induction of delayed type hypersensitivity (DTH) and administration: 30 male Balb/c mice were weighed and randomly divided into 6 groups according to body weight, with 5 mice in each group. The experimental period lasted for 7 days in total. On day 0, the mice were subcutaneously injected with sheep red blood cells (SRBCs) for sensitization. From day 0, the mice were administrated with 100 mg/kg by gavage (once a day) until day 6. On day 6, SRBCs were injected into the right hind foot pad of the mice for excitation. On day 7 of the experiment, measurements were conducted, photographs were taken, and the experiment was ended.
Pharmacodynamic detection indicators of disease models: the detection and observation indicators were the degree of redness and swelling and detected thicknesses of paw pads of the mice in the model group as induced by SRBC. The thickness of the right paw was measured as the baseline before the SRBC injection excitation on day 6. At the end of the experiment […], the thickness of the right paw was measured again, and the difference in thickness of the paw before and after the second injection was calculated.
Statistical processing: experimental data was expressed as mean±standard deviation (Mean±SD). All data was statistically analyzed using a T-test. P<0.05 was considered to be statistically different.

[3] = tested on: radiation-induced lung injury mouse model; test: Mouse model of acute radiation-induced lung injury; type: in vivo; settings: female C57BL/6 mice, 22.5 Gy whole lung irradiation, 30 mg/kg q.d, 3 weeks after modeling
Description: 18 female C57BL/6 mice were randomly divided into 3 groups, namely a blank control group, a group treated with irradiation alone, and a group intervened with irradiation+drug YZ001052 (30 mg/kg q.d), with 6 mice in each group.
The mice were anesthetized by intraperitoneal injection of 1% pentobarbital sodium, and were subjected to a single whole lung irradiation at 22.5 Gy, with 220 KV of X-rays by using a small animal radiation research platform (SARRP). After the irradiation was completed, the mice were fed routinely.
3 weeks after modeling, the mice were anesthetized and dissected. The lung tissue was exposed, the left lung was ligated, an open tracheotomy was performed, the lung was lavaged with cold PBS, and the bronchoalveolar lavage fluid (BALF) was collected and subjected to refrigerated centrifugation at 4° C.
The supernatant was collected, and detected for the content of the inflammatory factor TNF-α by ELISA.
The cell pellet of the alveolar lavage fluid was resuspended in 200 μL PBS and used for counting of white blood cells (WBCs).

[4] = tested on: DSS-induced mouse inflammatory bowel disease model; test: DSS-induced mouse inflammatory bowel disease model; type: in vivo; settings: female C57BL/6 mice, 5% DSS, 50 mg/kg once a day, day 8, compared with model group, FIG. 3
Description: Objective of Experiment: to test the immunosuppressive activity of YZ001052 in a DSS-induced mouse inflammatory bowel disease model. PF-06651600 was used as a positive control compound.
50 g of DSS was weighed, added with 1,000 mL of sterile water, formulated into a 5% DSS solution, and filtered with a 0.22 μm filter membrane. From day 0, the blank group was given drinking water without DSS, and the other experimental groups were given drinking water containing 5% DSS. All mice were sacrificed on day 8. After the experiment was ended, the colorectum was collected, and photographed, and its length was measured for statistical analysis.

Structure (SMILES): C=CC(=O)N1CCc2c(c(-c3ccnc4[nH]ccc34)nn2C)C1 [YZ001052]
- swelling of the paws [1]: improved to varying degrees
- arthritis scores ([1]; compared to the model group): significantly reduced
- immunosuppressive effect on SRBC-induced delayed type hypersensitivity (right paw thickness) [2]: significant immunosuppressive effects
- TNF-α level in the alveolar lavage fluid ([3]; ELISA, FIG. 4): good inhibitory effect
- number of white blood cells (inflammatory cell infiltrates) in the alveolar lavage fluid ([3]; FIG. 5): significantly reduce
- length of the colorectum [4]: significantly increased
